Experimental data from patent US20050282863A1, “Novel-N substituted dihydrobenzothiepino, dihydrobenzoxepino and tetrahydro benzocyclohepta indoles as selective estrogen receptor modulators” (Council of Scientific & Industrial Research, priority 2004, published 2005).

Assays:
adult female rats = assay: Post-coital antifertility efficacy in adult female rats; format: in vivo, rat; settings: daily dose 10 mg/kg, oral, days 1-7 post-coitum
Text: Adult female rats are caged overnight with coeval males of proven fertility and their vaginal smears are checked on the following morning. The day of presence of spermatozoa in the vaginal smear is taken as day 1 of pregnancy. Mated rats are isolated and randomized into various treatment groups and treated orally with the compound of invention or the vehicle on days 1-7/1-5 post-coitum. Animals of all the groups are autopsied on day 10 post-coitum and number and status of corpora lutea and implantation sites in each rat are recorded. The compounds of the present invention are considered active if there is complete absence of implantations in the uterus of all rats, in comparison to presence of normal implantations in the uterus of rats of vehicle control group.

estrogen receptors = biological target: T1, estrogen receptors (Rattus norvegicus, UniProt P06211); assay: Relative binding affinity (RBA) to estrogen receptors, 3H-estradiol competition assay; design: key: % of 17-beta-estradiol binding affinity (estradiol = 100); settings: relative to 17-beta-estradiol (=100, percentage value); rat uterine cytosol, 3H-E2, 18 hrs at 4° C.
T1 construct: Aliquot of uterine cytosol (200 μl; 2 uteri per ml) prepared in TEA buffer; from tissue; host or cells: uterine cytosol of immature estradiol-primed 20-21 day old rats
T1 sequence (P06211 1-600): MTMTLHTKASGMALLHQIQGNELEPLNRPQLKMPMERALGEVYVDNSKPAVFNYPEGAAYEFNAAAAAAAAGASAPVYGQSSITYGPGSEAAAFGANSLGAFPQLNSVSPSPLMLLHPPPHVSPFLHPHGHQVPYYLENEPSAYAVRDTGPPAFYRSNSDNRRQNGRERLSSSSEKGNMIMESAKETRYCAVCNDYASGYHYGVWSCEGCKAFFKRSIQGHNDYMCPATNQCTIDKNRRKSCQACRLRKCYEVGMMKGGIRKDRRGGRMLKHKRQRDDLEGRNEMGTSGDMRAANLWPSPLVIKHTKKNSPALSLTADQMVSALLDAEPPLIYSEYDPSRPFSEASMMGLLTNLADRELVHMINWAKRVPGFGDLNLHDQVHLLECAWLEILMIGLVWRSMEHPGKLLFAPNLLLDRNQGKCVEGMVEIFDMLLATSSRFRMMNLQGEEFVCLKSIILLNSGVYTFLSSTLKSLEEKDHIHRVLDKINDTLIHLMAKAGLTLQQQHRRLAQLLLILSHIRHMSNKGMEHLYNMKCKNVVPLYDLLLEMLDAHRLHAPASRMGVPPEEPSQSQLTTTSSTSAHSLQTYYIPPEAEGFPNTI
Procedure: The relative binding affinity (RBA) of the compounds for estrogen receptor is determined by competition assay, employing ^3H-estradiol (^3H-E2) as the radioligand. The test ligands and ^3H-E2 are incubated at 4° C. with cystol estrogen receptors obtained from uteri of immature estradoil-primed (1 μg/rat 24 h before autopsy) 20-21 days old rats. Aliquot of uterine cytosol (200 μl; 2 uteri per ml) prepared in TEA buffer (10 mM Tris, 1.5 mM EDTA, 0.02% sodium azide, pH 7.4) are incubated in duplicate with a fixed concentration of ^3H-E2 in the absence or presence of various concentrations of the competitor substance dissolved in 30 μl of the TEA buffer containing DMF as co-solvent (final concentration of DMF in the incubation mixture never exceeded 5%) for 18 hrs at 4° C. At the end of this period, dextran coated charcoal (5% Norit 0.5% dextran) suspension in 100 μl of TEA buffer is added to each tube, briefly vortexed and allowed to stand for 15 minutes at 4° C. The mixture is centrifuged at 800 g for 10 minutes and the supernatants counted for radioactivity in 10 ml of a dioxane-based scintillation fluid. RBA of the text compound is computed from a graph plotted between percent bound radioactivity verses log concentration of the test substance. […] This when multiplied with 100 gives the percentage value designated as RBA.

[1] = test system: chick fetal bones in culture; assay: Inhibition in PTH-induced resorption of 45Ca from chick fetal bones in culture (antiresorptive activity in vitro); format: cell-based; settings: Gallus gallus, 96 h, 100 μM; PTH-induced 45Ca resorption, 96 h culture; read-out: T/C ratio
Procedure: 5 μl of each concentration are used for evaluation of antiresorptive activity in vitro. In control experiments, 5 μl of appropriate solvent is used in lieu of the test compound. Femur bones are isolated from chick embryos on day 11 post-ovulation. The adhering soft connective tissue is completely removed. Each femur bone is then placed in a drop of phosphate buffered saline (PBS) and is transferred to BGJb culture medium containing ^45CaCl2 and incubated for 2 h. Labeled femur bones are washed 2-3 times with PBS and transferred to BGJb medium containing parathyroid hormone and cultured for 96 h in the presence or absence of the compound of invention or the vehicle in BGJb medium. Contralateral femur of each fetus serves as corresponding control. Culture medium with the respective treatment in each well is changed after 48 h. On termination of the culture at 96 h, bones are transferred to 0.1 N HCl for 24 h. Radioactivity due to ^45Ca in the spent medium collected at 48 and 96 h of culture and HCl extract at 96 h of culture is quantified by Liquid Scintillation Spectrophotometer in 10 ml of the scintillation fluid. Bone resorbing activity is expressed as percentage of ^45Ca released into the culture medium and the effect of the compound of invention as percent of the corresponding contra-lateral control or T/C ratio as shown below: [formula]
Appropriate solvents are selected from solvents like water, physiological saline, phosphate buffered saline, phosphate buffer, DMSO alone or in a suitable combination thereof.

[2] = test system: immature ovariectomized rats; assay: Estrogen antagonistic activity: inhibition in 17α-ethynylestradiol induced uterine weight gain in immature ovariectomized rats; format: in vivo, rat; settings: Rattus norvegicus, 72 h; daily dose 10 mg/kg with 0.02 mg/kg 17-alfa-ethynylestradiol, 3 days; read-out: Percent inhibition in 17α-ethynylestradiol induced uterine weight gain
Procedure: Twenty-one-day-old immature female rats are bilaterally ovariectomized under light ether anaesthesia and after post-operative rest for 7 days, are randomized into different treatment groups. Each rat receives the compounds of the invention and 0.02 mg/kg dose of 17-alfa-ethynylestradiol in 10% ethanol-distilled water once daily for 3 consecutive days on days 28-30 of age. A separate group of animals receiving only 17-alfa-ethynylestradiol (0.02 mg/kg) in 10% ethanol-distilled water for similar duration are used for comparison. At autopsy on day 31 of age, vaginal smear of each rat is taken and uterus is carefully excised, gently blotted, weighed and fixed for histology and histomorphometry using image analysis. Inhibition in 17-alfa-ethynylestradiol-induced premature opening of vagina, cornification of vaginal epithelium, increase in uterine fresh weight, total uterine and endometrial area and uterine luminal epithelial cell height are taken as parameters for evaluation of estrogen antagonistic activity.

[3] = test system: immature ovariectomized rats; assay: Estrogen agonistic activity: increase in uterine weight in immature ovariectomized rats; format: in vivo, rat; settings: Rattus norvegicus, 72 h, daily dose 10 mg/kg, 3 days; percent of ovariectomized + vehicle group
Procedure: Twenty-one-day-old immature female rats are bilaterally ovariectomized under light ether anaesthesia and, after post-operative rest for 7 days, are randomized into different treatment groups. Each rat receives the compound of the invention once daily for 3 consecutive days on days 28-30 of age. A separate group of animals receiving only the vehicle for similar duration serves as control. A autopsy 24 h after the last treatment on day 31 of age, vaginal smear of each rat is taken and uterus is carefully exised, gently blotted, weighed and fixed for histology and histomorphometry using image analysis. Premature opening of vagina, cornification of vaginal epitelium, increase in uterine fresh weight, total uterine and endometrial area and uterine luminal epithelial cell height are taken as parameters for evaluation of estrogen agonistic activity in comparision to rats of vehicle control group.

Compound	melting point [°C]	RBA (estrogen receptors)	% Efficacy (adult female rats)	activity at 100 µM [1] [%]	inhibition in vivo at 10 mg/kg/day [2] [%]	change in vivo at 10 mg/kg [3] [%]
c1ccc2c(c1)SCCc1c-2n(CCN2CCCCC2)c2ccccc12 [Example number 5, 12-[2-(Piperidine-1-yl)ethyl]-6,7-dihydro-12H-benzothiepino [5,4-b]indole]	118		Inactive			
c1ccc2c(c1)SCCc1c-2n(Cc2ccc(OCCCN3CCCCC3)cc2)c2ccccc12 [Example number 41, 12-[4-(3-Piperidin-1-yl-propyloxy)benzyl]-6,7-dihydro-12H-benzothiepino [5,4-b]indole]	70 to 71		Inactive	108	6.41	42.9
c1ccc2c(c1)OCCc1c-2n(Cc2ccc(OCCCN3CCCCC3)cc2)c2ccccc12 [Example number 58, 12-[4-(3-Piperidin-1-yl-propyloxy)benzyl]-6,7-dihydro-12H-benzoxepino[5,4-b]indole]	129 to 130		Inactive	98	11.4	7.85
c1ccc2c(c1)OCCc1c-2n(CCCN2CCCCC2)c2ccccc12 [Example number 47, 12-[3-(Piperidine-1-yl)propyl]-6,7-dihydro-12H-benzoxepino[5,4-b]indole]	65 to 66		Inactive		17.2	8.31
c1ccc2c(c1)OCCc1c-2n(CCN2CCCCC2)c2ccccc12 [Example number 45, 12-[2-(Piperidine-1-yl)ethyl]-6,7-dihydro-12H-benzoxepino[5,4-b]indole]	103		Inactive			

Now from value to molecule, other results behind:

melting point [°C]	RBA (estrogen receptors)	Compound	% Efficacy (adult female rats)	activity at 100 µM [1] [%]	inhibition in vivo at 10 mg/kg/day [2] [%]	change in vivo at 10 mg/kg [3] [%]
217 to 219	<0.001	Oc1ccc2c(c1)c1c(n2CCCCCN2CCCC2)-c2ccccc2SCC1 [Example number 30, 9-Hydroxy-12-[5-(pyrrolidine-1-yl)pentyl]-6,7-dihydro-12H-benzothiepino [5,4-b]indole]	Inactive			
134 to 136	0.36	CCCCN(C)CCCCCn1c2c(c3cc(O)ccc31)CCSc1cc(O)ccc1-2 [Example number 37]				
